ChEMBL document CHEMBL1146458, “Five new maleic and succinic acid derivatives from the mycelium of Antrodia camphorata and their cytotoxic effects on LLC tumor cell line” (2004)
Converted amounts (≈) assume the structure as drawn.

experiment: Cytotoxicity against mouse LLC cells after 48 hrs by SRB assay; format: functional; conditions: Lewis lung carcinoma, read-out: ED50 (the source's name)

Row | Structure (SMILES) | EC50 [µg/mL]
1 | CC(C)=CCOc1ccc(C2=C(CC(C)C)C(=O)N(O)C2=O)cc1 | 7.5 (≈ 22.8 µM)
2 | CC(C)=CCOc1ccc([C@H]2C(=O)N(O)C(=O)[C@@H]2CC(C)C)cc1 (relative stereo) | > 10
3 | CC(C)=CCOc1ccc(C2=C(CC(C)C)C(=O)OC2=O)cc1 | > 20
4 | CC(C)=CCOc1ccc(C2=C(CC(C)C)C(=O)NC2=O)cc1 | 3.6 (≈ 11.5 µM)
5 | COc1cccc2c1C(=O)c1c(O)c3c(c(O)c1C2=O)C[C@@](O)(C(=O)CO)C[C@@H]3O[C@H]1C[C@H](N)[C@H](O)[C@H](C)O1 [DOXORUBICIN] | 0.14 (≈ 0.258 µM)
